Laboratory results: patent US8415469B2, “Compounds and methods for kinase modulation, and indications therefor” (Plexxikon Inc., priority 2005, dated 2013)

How the values were obtained:
Format in all cases: biochemical
B-Raf = target: T1, B-Raf (Homo sapiens, UniProt P15056); test: AlphaScreen kinase assay, B-Raf; settings: read-out: IC50, activity toward kinase B-Raf
T1 construct: purchased Upstate Biotechnology

B-Raf V600E = target: T2, B-Raf V600E (Homo sapiens, UniProt P15056, V600E); test: AlphaScreen kinase assay, B-Raf V600E; settings: read-out: IC50, activity toward kinase B-Raf V600E
T2 construct: P4254. pFastBacBD-CDC37 BRAF D437-K722-X, V600E; His6 with pFastBac HT leader (TEV site) (N); made in house; host or cells: Sf9 (baculovirus; chaperone CDC37 co-expressed)
T2 sequence (P15056 with tags, fused parts or gaps V600E): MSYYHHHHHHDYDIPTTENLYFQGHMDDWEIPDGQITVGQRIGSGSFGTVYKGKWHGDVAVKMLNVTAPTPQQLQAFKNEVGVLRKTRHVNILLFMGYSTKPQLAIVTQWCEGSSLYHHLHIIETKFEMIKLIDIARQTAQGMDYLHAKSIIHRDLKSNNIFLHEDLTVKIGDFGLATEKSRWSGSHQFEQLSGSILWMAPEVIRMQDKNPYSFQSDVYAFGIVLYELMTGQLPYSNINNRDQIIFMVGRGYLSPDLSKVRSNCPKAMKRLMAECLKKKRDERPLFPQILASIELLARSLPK

Fms = target: T3, Fms (Homo sapiens, UniProt P07333); test: AlphaScreen kinase assay, Fms; settings: read-out: IC50, activity toward kinase Fms
T3 construct: purchased Upstate Biotechnology
T3 sequence (P07333 20-972): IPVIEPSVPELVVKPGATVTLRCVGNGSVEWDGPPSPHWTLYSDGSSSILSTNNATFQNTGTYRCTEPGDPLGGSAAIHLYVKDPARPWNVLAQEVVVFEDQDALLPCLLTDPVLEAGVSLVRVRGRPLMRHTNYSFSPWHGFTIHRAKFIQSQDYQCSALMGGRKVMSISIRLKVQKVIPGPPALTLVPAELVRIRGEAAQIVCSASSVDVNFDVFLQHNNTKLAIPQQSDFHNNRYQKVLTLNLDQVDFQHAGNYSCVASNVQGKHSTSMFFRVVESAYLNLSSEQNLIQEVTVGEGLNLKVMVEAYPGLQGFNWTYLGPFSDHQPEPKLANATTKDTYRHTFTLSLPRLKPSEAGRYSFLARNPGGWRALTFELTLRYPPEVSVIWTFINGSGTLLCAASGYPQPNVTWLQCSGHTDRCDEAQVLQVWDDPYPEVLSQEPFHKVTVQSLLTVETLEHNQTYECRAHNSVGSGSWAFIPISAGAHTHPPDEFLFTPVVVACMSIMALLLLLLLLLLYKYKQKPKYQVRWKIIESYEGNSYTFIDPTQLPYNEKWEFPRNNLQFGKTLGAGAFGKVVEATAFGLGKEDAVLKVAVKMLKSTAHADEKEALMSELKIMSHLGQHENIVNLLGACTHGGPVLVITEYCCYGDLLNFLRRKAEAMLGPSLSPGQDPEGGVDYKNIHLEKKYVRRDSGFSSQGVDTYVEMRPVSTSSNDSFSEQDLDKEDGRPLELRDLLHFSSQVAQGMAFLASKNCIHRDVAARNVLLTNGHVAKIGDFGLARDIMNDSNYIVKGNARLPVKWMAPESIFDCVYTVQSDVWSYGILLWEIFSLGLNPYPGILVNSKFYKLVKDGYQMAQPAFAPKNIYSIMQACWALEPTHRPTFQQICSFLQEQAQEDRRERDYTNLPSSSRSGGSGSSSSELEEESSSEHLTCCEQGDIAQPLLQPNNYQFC

Jnk1 = target: T4, Jnk1 (Homo sapiens, UniProt P45983); test: AlphaScreen kinase assay, Jnk1; settings: read-out: IC50, activity toward kinase Jnk1
T4 construct: purchased Upstate Biotechnology
T4 sequence (P45983 whole entry): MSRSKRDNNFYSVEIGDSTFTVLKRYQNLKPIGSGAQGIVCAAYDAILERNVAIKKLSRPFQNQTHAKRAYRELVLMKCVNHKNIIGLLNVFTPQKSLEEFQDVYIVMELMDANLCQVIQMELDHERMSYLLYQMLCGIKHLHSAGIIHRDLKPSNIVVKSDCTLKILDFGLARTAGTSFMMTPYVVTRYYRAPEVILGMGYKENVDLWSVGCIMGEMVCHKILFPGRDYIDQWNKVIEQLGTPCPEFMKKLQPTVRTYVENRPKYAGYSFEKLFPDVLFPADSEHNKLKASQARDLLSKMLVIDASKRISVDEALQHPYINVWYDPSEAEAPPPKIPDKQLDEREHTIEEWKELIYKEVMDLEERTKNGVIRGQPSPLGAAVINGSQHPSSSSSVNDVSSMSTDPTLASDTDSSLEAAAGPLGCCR

Jnk2 = target: T5, Jnk2 (Homo sapiens, UniProt P45984); test: AlphaScreen kinase assay, Jnk2; settings: read-out: IC50, activity toward kinase Jnk2
T5 construct: purchased Roche Protein Expression Group (Indianapolis, IN)
T5 sequence (P45984 whole entry): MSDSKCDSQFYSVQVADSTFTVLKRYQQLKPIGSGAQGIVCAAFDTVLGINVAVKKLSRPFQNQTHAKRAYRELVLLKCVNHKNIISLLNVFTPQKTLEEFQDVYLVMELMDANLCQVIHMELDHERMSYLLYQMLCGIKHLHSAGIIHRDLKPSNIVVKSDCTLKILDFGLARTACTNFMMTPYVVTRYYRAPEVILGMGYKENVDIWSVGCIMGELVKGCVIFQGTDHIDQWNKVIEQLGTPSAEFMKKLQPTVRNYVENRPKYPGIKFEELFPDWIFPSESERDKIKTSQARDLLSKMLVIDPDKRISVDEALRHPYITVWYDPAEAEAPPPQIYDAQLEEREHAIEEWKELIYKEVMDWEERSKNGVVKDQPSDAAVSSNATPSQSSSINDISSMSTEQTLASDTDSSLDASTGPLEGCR
Description: AlphaScreen assay was used to screen additional kinases. The assay is similarly dependent on the phosphorylation of a peptide substrate. In this assay, an antibody that recognizes phosphorylated substrate is bound to an acceptor bead. The peptide substrate is attached to biotin, which binds to a donor head that contains streptavidin. Thus phosphorylated substrate is bound by antibody and streptavidin, bringing the donor and acceptor heads into close proximity when kinase is not inhibited. The donor produces singlet oxygen which results in emission from the acceptor when they are in close proximity. Conversely, when kinase is inhibited, the donor and acceptor beads are not associated and the emission from the acceptor is reduced.
AlphaScreen assays were done using compounds dissolved in DMSO to a concentration of 20 mM. The compounds were diluted accordingly to the desired final concentrations in each sample well, using 1:3 serial dilution for a total of 8 concentration points.

Jnk3 = target: T6, Jnk3 (Homo sapiens, UniProt P53779); test: AlphaScreen kinase assay, Jnk3; settings: read-out: IC50, activity toward kinase Jnk3
T6 construct: purchased Upstate Biotechnology
T6 sequence (P53779 whole entry): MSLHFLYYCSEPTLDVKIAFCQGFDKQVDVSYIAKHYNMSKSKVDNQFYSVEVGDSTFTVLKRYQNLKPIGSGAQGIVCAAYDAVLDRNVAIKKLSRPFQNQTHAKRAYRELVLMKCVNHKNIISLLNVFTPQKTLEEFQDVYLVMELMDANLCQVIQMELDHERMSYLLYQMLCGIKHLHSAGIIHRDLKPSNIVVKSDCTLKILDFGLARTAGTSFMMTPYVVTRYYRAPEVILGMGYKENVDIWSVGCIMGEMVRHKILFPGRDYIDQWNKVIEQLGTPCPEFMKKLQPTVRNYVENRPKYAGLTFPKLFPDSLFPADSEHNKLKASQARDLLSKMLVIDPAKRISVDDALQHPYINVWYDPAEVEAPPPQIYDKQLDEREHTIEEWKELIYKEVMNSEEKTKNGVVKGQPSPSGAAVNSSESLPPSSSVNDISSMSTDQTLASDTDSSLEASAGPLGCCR

Kit = target: T7, Kit (Homo sapiens, UniProt P10721); test: AlphaScreen kinase assay, Kit; settings: read-out: IC50, activity toward kinase Kit
T7 construct: P1332.N6 BI PTP KIT M552-K948-X COD; His6 (N); made in house; host or cells: E. coli (PTP1B co-expressed)
T7 sequence (P10721 with tags, fused parts or gaps): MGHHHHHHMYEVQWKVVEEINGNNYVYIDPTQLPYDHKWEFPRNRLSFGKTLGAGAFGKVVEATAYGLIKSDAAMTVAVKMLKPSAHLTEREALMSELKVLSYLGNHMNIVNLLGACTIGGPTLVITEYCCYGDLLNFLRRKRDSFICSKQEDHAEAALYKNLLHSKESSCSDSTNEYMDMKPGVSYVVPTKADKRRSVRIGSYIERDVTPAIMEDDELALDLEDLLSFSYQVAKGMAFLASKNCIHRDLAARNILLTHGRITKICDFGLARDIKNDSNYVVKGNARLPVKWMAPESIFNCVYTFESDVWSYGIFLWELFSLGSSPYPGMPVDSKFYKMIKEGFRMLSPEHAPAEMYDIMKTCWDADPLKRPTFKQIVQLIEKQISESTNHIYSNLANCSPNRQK

T1 sequence (P15056 whole entry): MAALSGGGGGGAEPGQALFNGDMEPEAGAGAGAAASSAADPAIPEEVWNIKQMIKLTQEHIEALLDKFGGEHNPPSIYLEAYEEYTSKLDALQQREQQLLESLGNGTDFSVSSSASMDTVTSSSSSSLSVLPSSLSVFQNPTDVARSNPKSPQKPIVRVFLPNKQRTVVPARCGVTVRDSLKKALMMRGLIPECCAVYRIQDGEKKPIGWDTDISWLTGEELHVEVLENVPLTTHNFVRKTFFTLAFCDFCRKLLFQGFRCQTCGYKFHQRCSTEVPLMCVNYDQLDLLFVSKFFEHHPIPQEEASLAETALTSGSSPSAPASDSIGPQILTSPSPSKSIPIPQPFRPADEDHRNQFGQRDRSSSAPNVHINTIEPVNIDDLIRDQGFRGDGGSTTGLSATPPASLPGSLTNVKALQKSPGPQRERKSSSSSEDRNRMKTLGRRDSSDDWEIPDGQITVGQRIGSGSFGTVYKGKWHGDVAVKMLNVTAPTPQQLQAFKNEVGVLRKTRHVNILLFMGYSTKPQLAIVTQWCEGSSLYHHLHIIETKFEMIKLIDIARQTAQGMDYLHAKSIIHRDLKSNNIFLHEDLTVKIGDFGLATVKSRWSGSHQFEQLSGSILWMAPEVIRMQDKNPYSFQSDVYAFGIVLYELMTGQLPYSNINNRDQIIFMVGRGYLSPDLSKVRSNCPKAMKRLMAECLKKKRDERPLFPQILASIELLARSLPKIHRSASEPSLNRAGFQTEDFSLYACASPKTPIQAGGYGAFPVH

IC50 (B-Raf) [µM]	IC50 (B-Raf V600E) [µM]	IC50 (Fms) [µM]	IC50 (Jnk1) [µM]	IC50 (Jnk2) [µM]	IC50 (Jnk3) [µM]	IC50 (Kit) [µM]	Structure (SMILES)
≤ 10	≤ 10	≤ 10	≤ 10	≤ 10	≤ 10	–	O=C(Nc1cccc(C(=O)c2c[nH]c3ncc(-c4cccnc4)cc23)c1)Nc1ccc(F)c(F)c1 [Compound P-1724, 1-(3,4-Difluoro-phenyl)-3-[3-(5-pyridin-3-yl-1H-pyrrolo[2,3-b]pyridine-3-carbonyl)-phenyl]-urea]
≤ 10	≤ 10	≤ 10	≤ 10	≤ 10	≤ 10	–	O=C(Nc1ccc(F)cc1)Nc1cccc(C(=O)c2c[nH]c3ncc(-c4cccnc4)cc23)c1 [Compound P-1748, 1-(4-Fluoro-phenyl)-3-[3-(5-pyridin-3-yl-1H-pyrrolo[2,3-b]pyridine-3-carbonyl)-phenyl]-urea]
≤ 10	≤ 10	≤ 10	≤ 10	≤ 10	≤ 10	–	COc1cccc(NC(=O)Nc2cccc(C(=O)c3c[nH]c4ncc(-c5cccnc5)cc34)c2)c1 [Compound P-1749, 1-(3-Methoxy-phenyl)-3-[3-(5-pyridin-3-yl-1H-pyrrolo[2,3-b]pyridine-3-carbonyl)-phenyl]-urea]
≤ 10	≤ 10	≤ 10	≤ 10	≤ 10	≤ 10	–	O=C(Nc1ccc(Cl)cc1)Nc1cccc(C(=O)c2c[nH]c3ncc(-c4cccnc4)cc23)c1 [Compound P-1750, 1-(4-Chloro-phenyl)-3-[3-(5-pyridin-3-yl-1H-pyrrolo[2,3-b]pyridine-3-carbonyl)-phenyl]-urea]
≤ 10	≤ 10	≤ 10	≤ 10	≤ 10	≤ 10	–	Cc1ccc(NC(=O)Nc2cccc(C(=O)c3c[nH]c4ncc(-c5cccnc5)cc34)c2)cc1 [Compound P-1756, 1-[3-(5-Pyridin-3-yl-1H-pyrrolo[2,3-b]pyridine-3-carbonyl)-phenyl]-3-p-tolyl-urea]
≤ 10	≤ 10	≤ 10	≤ 10	≤ 10	≤ 10	–	Cc1cccc(NC(=O)Nc2cccc(C(=O)c3c[nH]c4ncc(-c5cccnc5)cc34)c2)c1 [Compound P-1757, 1-[3-(5-Pyridin-3-yl-1H-pyrrolo[2,3-b]pyridine-3-carbonyl)-phenyl]-3-m-tolyl-urea]
≤ 10	≤ 10	–	≤ 10	≤ 10	≤ 10	–	O=C(Nc1ccncc1)Nc1cccc(C(=O)c2c[nH]c3ncc(-c4cccnc4)cc23)c1 [Compound P-1777, 1-Pyridin-4-yl-3-[3-(5-pyridin-3-yl-1H-pyrrolo[2,3-b]pyridine-3-carbonyl)-phenyl]-urea]

The next lines start with the compound.

Structure (SMILES)	IC50 (B-Raf) [µM]	IC50 (B-Raf V600E) [µM]	IC50 (Fms) [µM]	IC50 (Jnk1) [µM]	IC50 (Jnk2) [µM]	IC50 (Jnk3) [µM]	IC50 (Kit) [µM]
CCCCNC(=O)n1ccc2c(C(=O)c3c[nH]c4ncc(Br)cc34)cccc21 [Compound P-1687, 4-(5-Bromo-1H-pyrrolo[2,3-b]pyridine-3-carbonyl)-indole-1-carboxylic acid butylamide]	≤ 10	≤ 10	≤ 10	≤ 10	≤ 10	≤ 10	–
CCCCCNC(=O)n1ccc2c(C(=O)c3c[nH]c4ncc(-c5cccnc5)cc34)cccc21 [Compound P-1702, 4-(5-Pyridin-3-yl-1H-pyrrolo[2,3-b]pyridine-3-carbonyl)-indole-1-carboxylic acid pentylamide]	≤ 10	≤ 10	≤ 10	≤ 10	≤ 10	≤ 10	–
Cc1ccccc1NC(=O)Nc1cccc(C(=O)c2c[nH]c3ncccc23)c1 [Compound P-1720, 1-[3-(1H-Pyrrolo[2,3-b]pyridine-3-carbonyl)-phenyl]-3-o-tolyl-urea]	≤ 10	≤ 10	≤ 10	≤ 10	≤ 10	≤ 10	≤ 10
CCCN(CCC)C(=O)n1ccc2c(C(=O)c3c[nH]c4ncc(-c5cccnc5)cc34)cccc21 [Compound P-1722, 4-(5-Pyridin-3-yl-1H-pyrrolo[2,3-b]pyridine-3-carbonyl)-indole-1-carboxylic acid dipropylamide]	≤ 10	≤ 10	≤ 10	≤ 10	≤ 10	≤ 10	–
CCCCNC(=O)Nc1cccc(C(=O)c2c[nH]c3ncc(-c4cccnc4)cc23)c1C [Compound P-1742, 1-Butyl-3-[2-methyl-3-(5-pyridin-3-yl-1H-pyrrolo[2,3-b]pyridine-3-carbonyl)-phenyl]-urea]	≤ 10	≤ 10	≤ 10	≤ 10	≤ 10	≤ 10	–
Cc1ccccc1NC(=O)Nc1cccc(C(=O)c2c[nH]c3ncc(-c4cccnc4)cc23)c1 [Compound P-1759, 1-[3-(5-Pyridin-3-yl-1H-pyrrolo[2,3-b]pyridine-3-carbonyl)-phenyl]-3-o-tolyl-urea]	≤ 10	≤ 10	≤ 10	≤ 10	≤ 10	≤ 10	–
O=C(Nc1cccc(C(=O)c2c[nH]c3ncccc23)c1)Nc1ccon1 [Compound P-1764, 1-Isoxazol-3-yl-3-[3-(1H-pyrrolo[2,3-b]pyridine-3-carbonyl)-phenyl]-urea]	≤ 10	≤ 10	≤ 10	≤ 10	≤ 10	≤ 10	–
Cc1cc(NC(=O)Nc2cccc(C(=O)c3c[nH]c4ncccc34)c2)on1 [Compound P-1765, 1-(3-Methyl-isoxazol-5-yl)-3-[3-(1H-pyrrolo[2,3-b]pyridine-3-carbonyl)-phenyl]-urea]	≤ 10	≤ 10	≤ 10	≤ 10	≤ 10	≤ 10	–
Cc1noc(NC(=O)Nc2cccc(C(=O)c3c[nH]c4ncccc34)c2)c1C [Compound P-1767]	≤ 10	≤ 10	≤ 10	≤ 10	≤ 10	≤ 10	≤ 10
Cc1noc(NC(=O)Nc2cccc(C(=O)c3c[nH]c4ncc(Cl)cc34)c2)c1C [Compound P-1776, 1-[3-(5-Chloro-1H-pyrrolo[2,3-b]pyridine-3-carbonyl)-phenyl]-3-(3,4-dimethyl-isoxazol-5-yl)-urea]	≤ 10	≤ 10	≤ 10	≤ 10	≤ 10	≤ 10	≤ 10
CCCCNC(=O)n1ccc2c(C(=O)c3c[nH]c4ncc(-c5ccc(OC)nc5)cc34)cccc21 [Compound P-1827, 4-[5-(6-Methoxy-pyridin-3-yl)-1H-pyrrolo[2,3-b]pyridine-3-carbonyl]-indole-1-carboxylic acid butylamide]	≤ 10	–	≤ 10	≤ 10	≤ 10	≤ 10	–
CCCCNC(=O)Nc1cccc(C(=O)c2c[nH]c3ncc(-c4cccnc4)cc23)c1Cl [Compound P-1828, 1-Butyl-3-[2-chloro-3-(5-pyridin-3-yl-1H-pyrrolo[2,3-b]pyridine-3-carbonyl)-phenyl]-urea]	≤ 10	≤ 10	≤ 10	≤ 10	≤ 10	≤ 10	–
CCCS(=O)(=O)Nc1ccc(F)c(C(=O)c2c[nH]c3ncc(-c4ccc(C(=O)N(C)C)c(C)c4)cc23)c1F [Compound P-2007]	≤ 10	≤ 10	≤ 10	≤ 10	≤ 10	≤ 10	–
